Reference: USRE40558E1, “Therapeutic uses of di-aryl acid derivatives” (Sanofi-Aventis Deutschland GmbH, priority 1999, dated 2008)

melting point [°C]	SMILES
109 to 111	Cc1cc(OCc2ccccc2)cc(OCCCc2ccccc2)c1C(=O)O [Example 15, 4-Benzyloxy-2-methyl-6-(3-phenyl-propoxy)-benzoic Acid]
127 to 128	Cc1cc(OCc2ccccc2)cc(OCC2CCCCC2)c1C(=O)O [Example 15a, 4-Benzyloxy-2-cyclohexylmethoxy-6-methyl-benzoic Acid]
83 to 85	Cc1cc(OCc2ccccc2)cc(OCCCC(C)C)c1C(=O)O [Example 15b, 4-Benzyloxy-2-methyl-6-(4-methyl-pentyloxy)-benzoic Acid]
